Results on 6 molecules are retold here after US12648936B2 (NOVARTIS AG, priority 2019, dated 2026).

Test [1] deals with pS6 (Ser240/244) in MEF TSC1−/− cells (mTORC1 signaling). Nature of the test: Cell-based assay for rapalog potency (pS6 in MEF TSC1-/- cells). Further details: species or system Mouse. The conditions noted are these: 2 hours treatment, average from multiple assays.
Method: Cell-based assay for rapalog potency determination. Rapalog potency was determined using MEF TSC1−/− cell based assay. […] This cell-based assay is used to measure inhibition (de-phosphorylation) of S6 and 4EBP1 by rapalogs or other mTOR inhibitors.
MEF TSC1−/− cells were plated on Poly-D-lysine coated 384 well Griener clear bottom plates and incubated overnight at 37° C., 5% CO2. […] Nuclei were visualized with Hoechst (ThermoFisher Scientific #H3570) staining. Cells were imaged (InCell 600) using respective fluorescence channels and the potency of mTOR inhibitors was defined by pS6 IC50 (nM).
In the next test the target is T1, FKBP12 (Homo sapiens, UniProt P62942).
T1 construct: made in house; host or cells: E. coli
Nature of the test: SPR assay, binding affinity to FKBP12. The following applies: single-cycle kinetics, immobilized avi-his6 FKBP12. As to the method: (§1) SPR assay to determine binding affinity to FK506-binding proteins (FKBP). […] Each protein was subsequently immobilized on a streptavidin chip in a Biacore 8K SPR instrument (GE Healthcare). Using single-cycle kinetics, compound titrations were flowed at 45 uL/min over each surface using 2-minute association and 30-minute dissociation phases in a buffer containing 50 mM Tris pH 7.5/150 mM NaCl/0.01% Tween 20/1 mM DTT/2% DMSO. The data were fit using low molecular weight (LMW) single-cycle kinetics. The equilibrium dissociation constants (KD) are reported. The equilibrium dissociation constants (KD) to FKBP12, FKBP51, and FKBP52 are listed in Table 2 for the compound of the disclosure.

The next test deals with FKBP12.6 (Homo sapiens, UniProt P68106). Nature of the test: SPR assay, binding affinity to FKBP12.6. The conditions noted are these: single-cycle kinetics. As to the method:
as §1
In general terms: Surface plasmon resonance follows binding to a sensor surface in real time, without labels.

The target in the next test is T2, FKBP25 (Homo sapiens, UniProt Q00688).
T2 sequence (Q00688 1-224): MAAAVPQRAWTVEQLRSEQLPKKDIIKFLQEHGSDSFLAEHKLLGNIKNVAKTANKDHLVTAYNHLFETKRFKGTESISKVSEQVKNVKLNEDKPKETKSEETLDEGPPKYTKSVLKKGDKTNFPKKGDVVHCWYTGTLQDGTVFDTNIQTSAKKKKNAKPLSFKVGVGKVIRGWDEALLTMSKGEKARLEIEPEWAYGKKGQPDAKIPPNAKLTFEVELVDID
Nature of the test: SPR assay, binding affinity to FKBP25. The conditions noted are these: single-cycle kinetics. As to the method:
as §1

Another test has as its target T3, FKBP51 (Homo sapiens, UniProt Q13451).
T3 construct: made in house; host or cells: E. coli
T3 sequence (Q13451 1-457): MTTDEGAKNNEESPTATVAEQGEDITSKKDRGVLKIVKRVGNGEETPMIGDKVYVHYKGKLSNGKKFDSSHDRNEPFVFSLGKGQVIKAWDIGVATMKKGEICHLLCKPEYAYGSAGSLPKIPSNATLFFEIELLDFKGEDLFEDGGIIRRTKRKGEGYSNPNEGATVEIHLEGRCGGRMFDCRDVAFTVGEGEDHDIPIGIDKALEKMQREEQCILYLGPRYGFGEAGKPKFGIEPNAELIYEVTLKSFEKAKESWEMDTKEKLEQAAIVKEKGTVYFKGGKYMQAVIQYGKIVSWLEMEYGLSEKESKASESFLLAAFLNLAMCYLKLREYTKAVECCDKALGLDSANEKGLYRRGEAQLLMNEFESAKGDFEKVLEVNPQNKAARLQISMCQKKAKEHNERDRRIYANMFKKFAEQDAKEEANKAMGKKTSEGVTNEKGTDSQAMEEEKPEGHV
The test is described as follows: SPR assay, binding affinity to FKBP51. The conditions noted are these: single-cycle kinetics, immobilized avi-his6 FKBP51. The method, then:
as §1

The next test addresses T4, FKBP52 (Homo sapiens, UniProt Q02790).
T4 construct: made in house; host or cells: E. coli
T4 sequence (Q02790 1-459): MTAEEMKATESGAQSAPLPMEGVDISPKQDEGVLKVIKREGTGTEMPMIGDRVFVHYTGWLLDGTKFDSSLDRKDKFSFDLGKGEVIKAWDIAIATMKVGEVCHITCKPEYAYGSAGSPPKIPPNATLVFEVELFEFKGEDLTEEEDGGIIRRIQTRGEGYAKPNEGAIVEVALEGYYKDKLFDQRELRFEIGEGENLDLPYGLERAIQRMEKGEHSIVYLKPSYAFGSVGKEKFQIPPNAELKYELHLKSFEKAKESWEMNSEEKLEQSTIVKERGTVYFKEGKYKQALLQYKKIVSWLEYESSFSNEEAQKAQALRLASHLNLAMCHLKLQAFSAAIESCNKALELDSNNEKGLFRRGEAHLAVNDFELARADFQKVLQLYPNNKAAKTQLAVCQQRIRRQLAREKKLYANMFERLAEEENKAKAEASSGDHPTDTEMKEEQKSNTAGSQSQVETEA
Nature of the test: SPR assay, binding affinity to FKBP52. The following applies: single-cycle kinetics, immobilized avi-his6 FKBP52. As to the method: as §1

In test [2] the test system is S6K1(Thr389) phosphorylation (mTORC1 activity) in FKBP12 knock-out 293T cells. The test is described as follows: pS6K1(Thr389) sandwich ELISA in FKBP12 knock-out 293T cells. The following applies: 2 hours, dose range 1000 nM to 0.0033 nM, relative to DMSO media (FIG. 1B). The format is cell-based. The method, then:
Cells were treated in triplicate. The Y axis represents percent inhibition of pS6K1(Thr389) relative to the level in cells treated with rapalog free media (media plus DMSO).
Generation of FKPB12 knock-out 293T cells.
WT and FKBP12 knock-out 293T cells were plated at a density of 30,000 cells per well in poly-D-Lysine coated 96-well plates (Corning, #354461) in Dulbecco's modified Eagle's medium (ThermoFisher, #11995-065) supplemented with 10% fetal bovine serum (ThermoFisher, #16140-071). Cells were incubated at 37° C., 5% CO2 for 48 hours until they reached ˜80% confluence. […] Media supplemented with blank Dimethyl sulfoxide (DMSO) was used as a control for both compounds. Phosphorylated amounts of S6K1 (Thr389) were detected by a sandwich ELISA kit (Cell signaling, #7063C) following the manufacture's protocol.
S6K1 is a downstream target of mTORC1 and phosphorylation of its rapalog-sensitive Thr389 site is used as a functional readout of mTORC1 activity (Lee, C. H., Inoki, K. and Guan, K. L. (2007). mTOR pathway as a target in tissue hypertrophy. Annu. Rev. Pharmacol. Toxicol. 47, 443-467).

T1 sequence (P62942 whole entry): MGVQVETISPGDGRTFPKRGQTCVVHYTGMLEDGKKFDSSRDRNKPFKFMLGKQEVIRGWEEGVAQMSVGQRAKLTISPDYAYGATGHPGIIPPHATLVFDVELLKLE
Chain of FKBP12.6 (P68106 whole entry, species assumed): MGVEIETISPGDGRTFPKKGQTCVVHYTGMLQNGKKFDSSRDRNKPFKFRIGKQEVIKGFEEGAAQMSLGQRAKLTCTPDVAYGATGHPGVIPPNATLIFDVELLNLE

For the molecule `CO[C@@H]1C[C@H](C[C@@H](C)[C@@H]2CC(=O)[C@H](C)/C=C(\C)[C@@H](O)[C@@H](OC)C(=O)[C@H](C)C[C@H](C)/C=C/C=C/C=C(\C)C(N3CCCS3(=O)=O)C[C@@H]3CC[C@@H](C)[C@@](O)(O3)C(=O)C(=O)N3CCCC[C@H]3C(=O)O2)CC[C@H]1OCCO` (single isomer, unassigned) [Compound 2], it took 22.5 nM to reach half-maximal inhibition in test [1] (IC50).
Take `CO[C@@H]1C[C@H](C[C@@H](C)[C@@H]2CC(=O)[C@H](C)/C=C(\C)[C@@H](O)[C@@H](OC)C(=O)[C@H](C)C[C@H](C)/C=C/C=C/C=C(\C)C(N3CCCS3(=O)=O)C[C@@H]3CC[C@@H](C)[C@@](O)(O3)C(=O)C(=O)N3CCCC[C@H]3C(=O)O2)CC[C@H]1OCCO` (single isomer, unassigned) [Compound 3]: the IC50 – broadly, the midpoint of a concentration-inhibition curve – in test [1] was found to be 8.3 nM.
In turn, `CO[C@@H]1C[C@H](C[C@@H](C)[C@@H]2CC(=O)[C@H](C)/C=C(\C)[C@@H](O)[C@@H](OC)C(=O)[C@H](C)C[C@H](C)/C=C/C=C/C=C(\C)C(N3CCCS3(=O)=O)C[C@@H]3CC[C@@H](C)[C@@](O)(O3)C(=O)C(=O)N3CCCC[C@H]3C(=O)O2)CC[C@H]1O` (stereo partly drawn) [Compound 1] yielded an IC50 in test [1] (Mus musculus, 2 h) of 1.36 nM. Also, the Kd – broadly, the constant that tells how readily two partners part at equilibrium – at FKBP12 is 6.4 nM; on FKBP12.6, 56 nM; at FKBP25, 28900 nM; on FKBP51, 2040 nM; at FKBP52, 3550 nM. Further, the “inhibition of S6K1(Thr389) phosphorylation” value in test [2] is “no longer inhibited”.
In turn, `CO[C@@H]1C[C@H](C[C@@H](C)[C@@H]2CC(=O)[C@H](C)/C=C(\C)[C@@H](O)[C@@H](OC)C(=O)[C@H](C)C[C@H](C)/C=C/C=C/C=C(\C)C(N3CCCCS3(=O)=O)C[C@@H]3CC[C@@H](C)[C@@](O)(O3)C(=O)C(=O)N3CCCC[C@H]3C(=O)O2)CC[C@H]1O` (stereo partly drawn) [Compound 4] came in with a half-maximal inhibitory concentration (IC50) in test [1] (Mus musculus, 2 h) of 3.4 nM. For the same molecule, the results for the Kd at FKBP12, at FKBP51 and at FKBP52 were 10.9 nM, 2580 nM and 2580 nM, respectively.
Regarding `CO[C@H]1C[C@@H]2CC[C@@H](C)[C@@](O)(O2)C(=O)C(=O)N2CCCC[C@H]2C(=O)O[C@H]([C@H](C)C[C@@H]2CC[C@@H](OCCO)[C@H](OC)C2)CC(=O)[C@H](C)/C=C(\C)[C@@H](O)[C@@H](OC)C(=O)[C@H](C)C[C@H](C)/C=C/C=C/C=C/1C` [RAD001, everolimus, reference compound], the midpoint of inhibition in test [1] (Mus musculus, 2 h), the IC50, lay at 0.05 nM. Further, the equilibrium dissociation constant (Kd) is 288 nM on FKBP12; 12 nM at FKBP12.6; 25 nM on FKBP25; 396 nM on FKBP51; 676 nM on FKBP52. Further, the “inhibition of S6K1(Thr389) phosphorylation” value in test [2] is reported as about 50%.
`CO[C@H]1C[C@@H]2CC[C@@H](C)[C@@](O)(O2)C(=O)C(=O)N2CCCC[C@H]2C(=O)O[C@H]([C@H](C)C[C@@H]2CC[C@@H](O)[C@H](OC)C2)CC(=O)[C@H](C)/C=C(\C)[C@@H](O)[C@@H](OC)C(=O)[C@H](C)C[C@H](C)/C=C/C=C/C=C/1C` [Rapamycin, reference compound] returned an IC50 in test [1] (Mus musculus, 2 h) of 0.05 nM.
